Source: publication PMC7901650, “Garcinoic Acid Is a Natural and Selective Agonist of Pregnane X Receptor” (Journal of Medicinal Chemistry, 2020)

Columns and labels:
[1] = biological target: T1, hPXR ligand binding domain (LBD) (Homo sapiens, UniProt O75469); assay: Isothermal titration calorimetry, binding to His-tagged hPXR LBD; details: ITC, 37 °C, pH 7.5
T1 construct: made in house; host or cells: E. coli BL21-Gold
T1 sequence (O75469 146-433 limits assumed): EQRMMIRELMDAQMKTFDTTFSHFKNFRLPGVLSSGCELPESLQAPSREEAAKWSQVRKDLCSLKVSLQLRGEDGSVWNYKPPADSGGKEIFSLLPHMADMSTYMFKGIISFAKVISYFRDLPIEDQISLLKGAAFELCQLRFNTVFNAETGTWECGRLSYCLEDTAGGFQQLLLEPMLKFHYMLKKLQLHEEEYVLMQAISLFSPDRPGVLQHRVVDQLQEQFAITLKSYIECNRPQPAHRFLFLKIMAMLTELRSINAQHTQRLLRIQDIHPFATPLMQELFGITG
Source text: To obtain direct proof of interaction with the hPXR ligand binding domain (LBD), we performed an isothermic titration calorimetry (ITC) experiment using His-tagged hPXR LBD protein in solution (Figure 1C). ITC measures the affinity, Ka, the Gibbs energy (ΔG = −RT ln Ka), and the changes in enthalpy, ΔH, and entropy, ΔS, associated with the binding of the FKK compounds (ΔG = −RT ln K = ΔH – TΔS). Enthalpic and entropic contributions to binding affinity define the nature of the forces that drive the binding reaction.[40],[41]
ITC was performed using a VP-ITC microcalorimeter from MicroCal/Malvern Instruments (Northampton, MA). The protein and the ligands (in DMSO, 8% vol/vol final concentration) were prepared in 25 mM Hepes, pH 7.5 with 150 mM NaCl. In all of the experiments, the ligand solution was injected in 10-μL aliquots into the calorimetric cell containing PXR-LBD [3 μM] at 37 °C. The respective concentrations of GA (1), 2, and 5 in the syringe were 60 μM each. The heat evolved upon each injection of the ligands was obtained from the integral of the calorimetric signal. The heat associated with binding to PXR-LBD in the cell was obtained by subtracting the heat of dilution from the heat of reaction.

LXRβ receptor = biological target: T2, LXRβ receptor (Homo sapiens, UniProt P55055); assay: AlphaScreen nuclear receptor panel, LXRβ; format: biochemical
T2 construct: GST-LBD
T2 sequence (P55055 222-460 limits assumed): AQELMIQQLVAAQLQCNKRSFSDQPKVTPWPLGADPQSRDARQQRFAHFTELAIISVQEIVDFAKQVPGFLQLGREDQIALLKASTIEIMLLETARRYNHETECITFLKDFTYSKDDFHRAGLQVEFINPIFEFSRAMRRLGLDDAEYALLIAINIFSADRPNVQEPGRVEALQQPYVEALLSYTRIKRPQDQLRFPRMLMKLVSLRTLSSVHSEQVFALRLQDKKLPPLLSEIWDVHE
Source text: (§1) Ligand binding activity of GA (1) was explored via AlphaScreen technology over a panel of NRs that, along with hPXR (Figure 1A), included major human endocrine and metabolic receptors, such as the retinoid X receptor (RXR), constitutive androstane receptor (CAR), farnesoid X receptor (FXR), vitamin D receptor (VDR), liver X receptor (LXR) forms α and β, and the PPAR isoforms α, δ, and γ (see Figure S1). GA (1) was compared to its analogue δ-tocotrienol (5), the vitamers 3 and 4, their short-chain metabolites (SCMs) α-CEHC (10) and γ-CEHC (11), and the LCMs 2 and 8 (Chart 1). The test was performed in the presence of reference standard agonists for the different NRs.
(§2) The activity of nuclear receptors was determined using AlphaScreen technology, a recruitment coactivator assay previously described.[56]
(§3) (A) The test was carried out at 10 μM compound final concentration. Ligand binding to nuclear receptors was expressed as luminescence units. […] Vehicle was assessed to obtain a measure of background signal (basal evaluation). […] In presence of the ligand, the nuclear receptor LBD undergoes conformational changes, binds to the coactivator and the chemical energy is transferred from donor to acceptor beads in order to produce a signal, i.e. luminescence; in this case the compounds behaves as agonist, changing the conformation of the receptor to recruit the coactivator. […]

CAR = biological target: T3, CAR (Homo sapiens, UniProt Q14994); assay: AlphaScreen nuclear receptor panel, CAR; format: biochemical
T3 construct: GST-LBD
T3 sequence (Q14994 109-352 limits assumed): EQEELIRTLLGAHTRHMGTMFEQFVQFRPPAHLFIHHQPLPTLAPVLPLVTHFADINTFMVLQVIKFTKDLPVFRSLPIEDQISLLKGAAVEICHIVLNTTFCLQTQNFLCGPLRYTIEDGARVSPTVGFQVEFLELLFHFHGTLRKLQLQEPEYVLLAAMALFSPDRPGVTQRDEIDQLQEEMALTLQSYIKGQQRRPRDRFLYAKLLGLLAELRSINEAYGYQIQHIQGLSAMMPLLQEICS
Source text: as §1, §2, §3

RAR = assay: AlphaScreen nuclear receptor panel, RAR; format: biochemical, human
Source text: as §1, §2, §3

recombinant human Pgp = biological target: T4, recombinant human Pgp (Homo sapiens, UniProt P08183); assay: P-glycoprotein activity assay (Pgp-Glo); format: biochemical; details: 50 nM to 25 μM
T4 construct: purchased Promega
Source text: To evaluate the effects of GA on recombinant human Pgp in a cell membrane fraction, we used the Pgp-Glo assay system (Promega, Madison, WI), according to the manufacturer’s instruction. The assay relies on the ATP dependence of the light-generating reaction of firefly luciferase.

T4 sequence (P08183 whole entry): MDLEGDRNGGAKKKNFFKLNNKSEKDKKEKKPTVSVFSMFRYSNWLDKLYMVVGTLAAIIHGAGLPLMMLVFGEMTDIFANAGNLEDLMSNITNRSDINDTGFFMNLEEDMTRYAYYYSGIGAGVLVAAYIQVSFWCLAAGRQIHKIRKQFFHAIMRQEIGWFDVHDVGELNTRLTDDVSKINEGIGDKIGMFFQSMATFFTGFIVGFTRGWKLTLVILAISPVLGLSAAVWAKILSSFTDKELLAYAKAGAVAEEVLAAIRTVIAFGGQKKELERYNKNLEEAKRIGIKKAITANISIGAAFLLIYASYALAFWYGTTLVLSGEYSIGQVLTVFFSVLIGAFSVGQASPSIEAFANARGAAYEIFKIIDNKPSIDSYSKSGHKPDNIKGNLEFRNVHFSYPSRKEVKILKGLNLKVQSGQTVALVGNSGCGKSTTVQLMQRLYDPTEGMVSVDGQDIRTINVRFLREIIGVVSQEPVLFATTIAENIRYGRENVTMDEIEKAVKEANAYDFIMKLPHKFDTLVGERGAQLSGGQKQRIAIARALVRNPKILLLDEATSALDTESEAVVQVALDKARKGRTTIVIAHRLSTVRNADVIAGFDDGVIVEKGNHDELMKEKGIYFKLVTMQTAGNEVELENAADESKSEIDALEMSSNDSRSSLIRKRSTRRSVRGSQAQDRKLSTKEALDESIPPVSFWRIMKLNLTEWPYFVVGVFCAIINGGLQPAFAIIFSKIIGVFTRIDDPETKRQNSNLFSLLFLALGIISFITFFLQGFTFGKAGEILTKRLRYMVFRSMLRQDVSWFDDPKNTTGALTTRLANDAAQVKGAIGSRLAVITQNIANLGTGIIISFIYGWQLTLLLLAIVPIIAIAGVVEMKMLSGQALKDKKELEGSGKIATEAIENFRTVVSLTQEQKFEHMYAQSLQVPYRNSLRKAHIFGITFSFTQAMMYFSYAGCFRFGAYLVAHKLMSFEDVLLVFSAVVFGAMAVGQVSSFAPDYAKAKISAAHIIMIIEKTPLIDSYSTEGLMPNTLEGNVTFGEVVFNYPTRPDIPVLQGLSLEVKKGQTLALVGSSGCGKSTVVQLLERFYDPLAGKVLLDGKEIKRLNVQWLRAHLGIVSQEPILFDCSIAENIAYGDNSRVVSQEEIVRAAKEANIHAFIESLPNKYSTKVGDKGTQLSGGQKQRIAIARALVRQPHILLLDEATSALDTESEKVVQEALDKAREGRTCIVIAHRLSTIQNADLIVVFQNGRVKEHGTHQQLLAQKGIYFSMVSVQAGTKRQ

C/C(=C\CC/C(C)=C/CC[C@]1(C)CCc2cc(O)cc(C)c2O1)CC/C=C(\C)C(=O)O [GA (1), (2E,6E,10E)-13-[(2R)-6-hydroxy-2,8-dimethyl-chroman-2-yl]-2,6,10-trimethyltrideca-2,6,10-trienoic acid]
N (stoichiometry) [1]: 0.9 | ΔG [1]: -8.8 kcal/mol | ΔH [1]: -6.4 kcal/mol | −TΔS [1]: -2.4 kcal/mol | ΔG ([1]; listed as 1): -8.8 kcal/mol | ΔH ([1]; listed as 1): -6.4 kcal/mol | Agonist activity at LXRβ (LXRβ receptor): low activity | Effect on CAR (constitutive activation) (CAR): partially inhibited | Response on RAR (RAR): No response | P-glycoprotein (MDR1) activity (recombinant human Pgp): increased in a dose–dose-dependent manner
